The values below come from US20090209615A1, “INHIBITORS OF MATRIX METALLOPROTEINASES TO TREAT NEUROLOGICAL DISORDERS” (priority 2004, published 2009).

Entries after “also recorded” stand apart in the source; their conditions may differ. Where two headings read alike, the source gives them in different places.

For data set [1], the system named is MMP gelatinolytic activity in the ischemic cortex. Briefly: In situ zymography of ischemic brain sections treated with MMP inhibitors. In kind it is biochemical, mouse. To be noted: brain sections after MCA occlusion/reperfusion treated with inhibitor.
Procedure: In situ zymography with the MMP fluorogenic substrate DQ-gelatin-FITC (Molecular Probes) was performed on fresh cryostat sections of mouse brains harvested after MCA ischemia and reperfusion (A to J). […] A, C, E, and G represent fluorogenic substrate (green), reflecting MMP activity in situ. B, D, F, H, I, and J are merged images of the fluorogenic substrate and Hoechst dye counterstaining to identify nuclei.
A, In situ zymography with the MMP fluorogenic substrate DQ-gel (green in top panels) merged with nuclear DNA staining by Hoechst dye (blue plus green in bottom panels).
Data set [2] concerns MMP-9. Briefly: MMP-9 activity in ischemic mouse brain after treatment in vivo (in situ zymography, gelatin zymography, Western blot). On the set-up: species or system C57BL/6J mice. For orientation: In western blotting, separated proteins are transferred to a membrane and probed.
In data set [3] the test system is laminin. Briefly: Laminin degradation in the ischemic hemisphere after MCAO/R (Western blot, immunostaining). It counts as in vivo, mouse. To be noted: for laminin degradation in the ischemic hemisphere (Western blot, 51 kDa fragment): SB-3CT-treated mice after transient MCAO/R.
Data set [4] deals with C57BL/6J mice, MCA occlusion/reperfusion. Briefly: Transient focal cerebral ischemia (MCA occlusion/reperfusion): infarct volume and neurological deficits. It counts as in vivo.
Data set [5] concerns the target T1, MMP-9 (Mus musculus, UniProt P41245).
T1 construct: from tissue; host or cells: brain of C57BL/6J mice after MCA occlusion/reperfusion
Nature of the data set: MMP-9 activity in ischemic mouse brain after treatment in vivo (in situ zymography, gelatin zymography, Western blot). To be noted: SB-3CT-treated mice, 2-hr MCA occlusion and 24-hr reperfusion. Details: species or system C57BL/6J mice.

Data set [6] in a line: Physiological variables and regional cerebral blood flow in MCAO mice. Particulars: for Ca^2+ / Glucose / MABP / Na^+ / PCO2 / PO2 / pH: mean ± SEM (n = 5); for regional cerebral blood flow (rCBF), laser Doppler flowmetry: MCAO and reperfusion; for pH: arterial blood.
For data set [7], the target named is T2, MMP-9 (Homo sapiens, UniProt P14780). Nature of the data set: Ex vivo degradation of neuronal laminin by exogenous MMP-9 in mouse-brain sections. It counts as biochemical.
Target sequence in this assay (P14780 107-707 limits assumed, species assumed): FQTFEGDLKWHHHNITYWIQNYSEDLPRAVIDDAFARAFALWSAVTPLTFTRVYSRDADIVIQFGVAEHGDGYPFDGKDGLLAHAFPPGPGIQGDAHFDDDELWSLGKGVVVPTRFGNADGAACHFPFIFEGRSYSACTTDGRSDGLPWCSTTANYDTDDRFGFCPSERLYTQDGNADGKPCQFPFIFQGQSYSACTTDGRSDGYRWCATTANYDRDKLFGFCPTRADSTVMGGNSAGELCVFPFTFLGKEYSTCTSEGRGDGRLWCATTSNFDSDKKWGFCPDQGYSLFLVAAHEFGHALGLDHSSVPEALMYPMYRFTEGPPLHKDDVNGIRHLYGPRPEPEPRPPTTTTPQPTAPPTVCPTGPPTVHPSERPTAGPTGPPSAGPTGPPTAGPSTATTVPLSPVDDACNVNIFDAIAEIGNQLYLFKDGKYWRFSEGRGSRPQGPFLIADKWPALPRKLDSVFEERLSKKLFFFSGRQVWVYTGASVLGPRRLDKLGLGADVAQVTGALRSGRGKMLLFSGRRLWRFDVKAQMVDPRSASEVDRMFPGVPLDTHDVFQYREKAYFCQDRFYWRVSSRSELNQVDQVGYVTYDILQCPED
Procedure: Purified mouse Engelbreth-Holm-Swarm laminin (ms EHS Ln) served as a molecular marker for laminin immunoblotting. The membrane was reblotted with anti-actin antibody to ensure equal protein loading in each lane.
Ex vivo laminin degradation and Western blots. Brain lysates (50 mg of total protein in TBS with 0.05% Brij 35) were incubated overnight at 37° C. with activated MMP-9, latent preform of MMP-9 (proMMP-9), or the catalytic domain of membrane type 1 (MT1)-MMP. […] Laminin and MMP-9 were analyzed by immunoblotting using rabbit pan-laminin (pan-Ln) and MMP-9 antibodies (from Sigma (St. Louis, Mo.) and Calbiochem (La Jolla, Calif.), respectively), followed by peroxidase-conjugated anti-rabbit IgG antibody. Peroxidase was visualized by enhanced chemiluminescence (Amersham Biosciences).
Data set [8] concerns cerebrocortical neurons. Briefly: Neuronal apoptosis induced by SNOC-activated MMP-9 in cerebrocortical cultures. It counts as cell-based. Particulars: R-proMMP-9 pre-activated by SNOC, 18 hours.
Data set [9] in a line: Stability of S-nitrosothiols (NAT conversion from DAN).
Data set [10] addresses R-proMMP-9 (Homo sapiens, UniProt P14780). Briefly: Activation of R-proMMP-9 in vitro (gelatin zymography, fluorogenic peptide cleavage).
Data set [11] has as its target T3, MMP-2 (Homo sapiens, UniProt P08253).
T3 sequence (P08253 110-660): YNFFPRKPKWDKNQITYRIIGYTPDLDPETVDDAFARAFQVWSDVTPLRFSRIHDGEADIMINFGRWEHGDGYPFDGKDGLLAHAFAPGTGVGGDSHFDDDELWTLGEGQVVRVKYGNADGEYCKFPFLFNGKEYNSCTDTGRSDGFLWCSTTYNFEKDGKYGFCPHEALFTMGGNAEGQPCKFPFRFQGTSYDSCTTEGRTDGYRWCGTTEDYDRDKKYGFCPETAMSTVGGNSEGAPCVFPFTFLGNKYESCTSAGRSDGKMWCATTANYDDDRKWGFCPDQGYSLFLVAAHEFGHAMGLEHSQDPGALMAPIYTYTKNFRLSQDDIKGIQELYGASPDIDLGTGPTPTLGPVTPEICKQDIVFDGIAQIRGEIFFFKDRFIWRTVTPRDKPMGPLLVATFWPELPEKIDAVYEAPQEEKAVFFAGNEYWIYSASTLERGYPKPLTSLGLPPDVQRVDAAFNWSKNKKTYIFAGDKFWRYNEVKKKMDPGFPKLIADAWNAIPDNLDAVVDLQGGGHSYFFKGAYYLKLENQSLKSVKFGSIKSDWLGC
Particulars: high-affinity site for TIMPs, Olson et al. 1997; cited from earlier work.

Data set [12] concerns the target T2, MMP-9. Particulars: high-affinity site for TIMPs, Olson et al. 1997; cited from earlier work.
Target sequence in this assay (P14780 107-707 limits assumed): as the sequence (P14780 107-707 limits assumed, species assumed) above

Chain of R-proMMP-9 (P14780 20-444 limits assumed): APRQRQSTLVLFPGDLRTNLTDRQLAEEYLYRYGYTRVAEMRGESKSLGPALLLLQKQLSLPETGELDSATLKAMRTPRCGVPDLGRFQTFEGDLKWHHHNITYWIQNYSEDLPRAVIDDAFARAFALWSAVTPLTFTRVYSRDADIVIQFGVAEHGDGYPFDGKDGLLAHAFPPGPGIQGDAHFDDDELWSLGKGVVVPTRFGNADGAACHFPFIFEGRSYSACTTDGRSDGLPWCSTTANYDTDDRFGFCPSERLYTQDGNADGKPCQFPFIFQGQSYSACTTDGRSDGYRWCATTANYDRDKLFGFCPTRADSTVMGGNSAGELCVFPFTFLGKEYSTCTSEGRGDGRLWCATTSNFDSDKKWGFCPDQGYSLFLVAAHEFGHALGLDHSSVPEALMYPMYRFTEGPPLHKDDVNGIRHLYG

On to `c1cnc2c(c1)ccc1cccnc12` [1,10-phenanthroline], for which the results for the “MMP gelatinolytic activity in the ischemic cortex (in situ zymography)” value in [1] and in data set [1] (listed as 1/10-phenanthroline) were “reduced; also recorded: abrogated” and “can prevent activation of MMP-9”, respectively.

In the case of `O=[N+]([O-])c1cccc2c(Br)n[nH]c12` [3-bromo-7-nitroindazole, reference compound], the “MMP activity in the ischemic cortex (in situ zymography)” value in [2] (30 mg/kg body weight i.p. prior to ischemia, wild-type mice) is reported as “abrogated”. For the same compound, in data set [3] (wild-type mice treated with nNOS inhibitor, after MCA occlusion/reperfusion), the “laminin degradation in the ischemic cortex (laminin immunoreactivity)” value was “attenuated; also recorded: blockage of laminin degradation”.

With `O=S(=O)(CC1CS1)c1ccc(Oc2ccccc2)cc1` (stereo not shown) [Compound 1, (4-Phenoxyphenylsulfonyl)methylthiirane], the “infarct volume (TTC staining)” value in [4] (25 mg/kg i.p. twice, 30 minutes before MCAO and 2 hours after MCAO, 2-hour MCAO, 24-hour reperfusion, vs vehicle, P<0.004 (FIG. 9), listed as SB3CT) was “decreases infarct volume; also recorded: protects the ischemic brain”; in [4] (25 mg/kg i.p., 24 h after reperfusion, vs vehicle-treated controls, p<0.001 (FIG. 14C)), “decreased infarct volume”. In addition, the infarct volume in data set [4] (25 mg/kg i.p., administration 6 h after ischemia, compared with 55% in vehicle-treated animals) is 40%; in [4] (25 mg/kg i.p., first injection 2 h postischemic, second 3 h later, 24 h after reperfusion) it was 30 % of control; in [4] (25 mg/kg i.p., preischemic injection (30 min before ischemia, second immediately before reperfusion), 24 h after reperfusion), 30 % of control. Besides, in [4] (24 h after MCA occlusion/reperfusion, vs vehicle-treated controls, p<0.02 (FIG. 14D)), the neurological behavioral score result is recorded as “significantly improved neurological function”. In [4] (24 hours after focal MCAO and reperfusion, vs vehicle, P<0.01 (FIG. 9C), listed as SB3CT), the “neurological behavioral outcomes (deficit score 0-4)” value is “significantly reduced neurological deficit outcomes; also recorded: improved”. The “behavioral scores (five-point scale)” value in data set [4] (treated 2 h after ischemia, 24 h after reperfusion) is listed as “significant improvement in behavioral scores”; in [4] (treated before ischemia, 24 h after reperfusion), “significant improvement in behavioral scores”. For the same compound, the “active MMP-9 in ischemic brain (gelatin zymography, Western blot)” value in data set [5] (listed as SB3CT) is reported as “attenuated the increase; also recorded: can prevent activation of MMP-9”; in [5] (listed as SB-3CT) it was “attenuated the increase; also recorded: significantly decreased”. Besides, the “proMMP-9 in ischemic brain (gelatin zymography, Western blot)” value is “attenuated the increase” in data set [5] (listed as SB3CT) and “attenuated the increase; also recorded: also decreased” in data set [5] (listed as SB-3CT). Besides, the “MMP gelatinolytic activity in the ischemic region (in situ zymography, deconvolution microscopy)” value in data set [2] (SB-3CT-treated mice vs vehicle-treated control, after MCAO/reperfusion) is “significantly reduced”. For the same compound, the “laminin degradation in the ischemic hemisphere (Western blot, 51 kDa fragment)” value in [3] (listed as SB3CT) is on record as “attenuated laminin degradation products”; in data set [3] (listed as SB-3CT), “decreased laminin degradation; also recorded: reduced”. Besides, the “Ca^2+” value was 1.100 ± 0.074 mmol/L in data set [6] (After MCAO), 1.150 ± 0.021 mmol/L in data set [6] (Before MCAO) and 1.117 ± 0.081 mmol/L in [6] (During MCAO). The values for the Glucose in [6] (After MCAO), in data set [6] (Before MCAO) and in [6] (During MCAO) were 154.3 ± 12.6 mg/dL, 160.7 ± 13.2 mg/dL and 162.70 ± 13.3 mg/dL, respectively. In addition, the MABP in [6] (After MCAO) came to 76.12 ± 2.89 mmHg; in [6] (Before MCAO) it was 78.68 ± 3.17 mmHg; in data set [6] (During MCAO) it was 79.49 ± 3.48 mmHg. Besides, the “Na^+” value in [6] (After MCAO) amounted to 157.7 ± 2.0 mmol/L; in data set [6] (Before MCAO), 155.7 ± 1.8 mmol/L; in [6] (During MCAO) it was 157.20 ± 0.5 mmol/L. Moreover, the values for the PCO2 in [6] (After MCAO), in data set [6] (Before MCAO) and in data set [6] (During MCAO) were 43.90 ± 5.28 mmHg, 40.70 ± 7.828 mmHg and 44.95 ± 14.55 mmHg, respectively. The values for the PO2 in data set [6] (After MCAO), in data set [6] (Before MCAO) and in [6] (During MCAO) were 245.4 ± 24.0 mmHg, 230.8 ± 31.7 mmHg and 214.5 ± 10.3 mmHg, respectively. Further, the “regional cerebral blood flow (rCBF), laser Doppler flowmetry” value in data set [6] (vs vehicle-treated controls, listed as SB3CT) is on record as “no significant differences; also recorded: unaffected”; in data set [6] (vs vehicle-treated controls, listed as SB-3CT) it was “no significant differences”. Moreover, the pH in data set [6] (After MCAO) was found to be 7.170 ± 0.027; in [6] (Before MCAO), 7.313 ± 0.060; in data set [6] (During MCAO), 7.106 ± 0.025. For the same compound, in [6] (vs vehicle-treated controls), the “physiological parameters including arterial blood gases and glucose” value is reported as “did not affect”.

The term melting point denotes the temperature, or range, at which the solid turns liquid. Compound `O=S(=O)(CCC1CO1)c1ccc(Oc2ccccc2)cc1` (stereo not shown) [Compound 5, 2-(4-Phenoxyphenylsulfonyl)ethyloxirane] had a melting point of 75 to 77 °C.

On to `CNC(=O)[C@H](Cc1c[nH]c2ccccc12)NC(=O)[C@@H](CC(=O)NO)CC(C)C` [GM6001], for which the “MMP gelatinolytic activity in the ischemic cortex (in situ zymography)” value in [1] was “reduced; also recorded: abrogated; also recorded: can prevent activation of MMP-9”. Also, in [7], the “degradation of neuronal laminin by activated MMP-9” value was “significantly reduced laminin degradation; also recorded: inhibited MMP-9 proteolysis of neuronal laminin”. For the same compound, in data set [8], the neuronal apoptosis entry is “abrogated the effect; also recorded: blocked the neuronal cell death”.

For orientation: half-life means the time in which the quantity being followed falls by half. Turning to `N[C@@H](CSN=O)C(=O)O` [SNOC, S-nitrosocysteine], in data set [9], the half-life at 200 μM was under 10 min. In addition, the decayed entry in data set [9] (within 15 min of incubation) is recorded as “over 95%”. The “conversion of R-proMMP-9 into the activated form (gelatin zymography)” value in [10] (R-proMMP-9 100 ng/ml, 200 μM agent, 18 hours, room temperature) is listed as “partial conversion”. Moreover, the “initial velocity of R-proMMP-9 activation” value in data set [10] (cleavage of synthetic fluorogenic peptide substrate) came to 0.88 µM/h.

Regarding `O=NO` [acidified sodium nitrite, sodium nitrite], in [10], the “conversion of R-proMMP-9 into the activated form (gelatin zymography)” value is listed as “partial conversion”.

Usually Ki stands for the dissociation constant of the complex between target and ligand, obtained from inhibition or displacement. “TIMP-1: endogenous cellular protein inhibitor of MMPs (tissue inhibitor of metalloproteinases)”: the figures for the Ki in data set [11] and in data set [12] were 29 ± 5 nM and 24 ± 4 nM, respectively.
